Source: ChEMBL document CHEMBL2417368, “Structure-based discovery of novel amide-containing nicotinamide phosphoribosyltransferase (nampt) inhibitors” (J Med Chem, 2013)

Key:
[1] = Metabolic stability in human liver microsomes assessed as compound remaining at 1 uM after 30 mins LC-MS analysis; type: ADME, Microsome; conditions: liver microsomes, read-out: Stability
[2] = Metabolic stability in mouse liver microsomes assessed as compound remaining at 1 uM after 30 mins LC-MS analysis; type: ADME, Microsome; conditions: liver microsomes, read-out: Stability
[3] = biological target: Nicotinamide phosphoribosyltransferase (Homo sapiens, UniProt P43490)
Sequence of Nicotinamide phosphoribosyltransferase (P43490 whole entry): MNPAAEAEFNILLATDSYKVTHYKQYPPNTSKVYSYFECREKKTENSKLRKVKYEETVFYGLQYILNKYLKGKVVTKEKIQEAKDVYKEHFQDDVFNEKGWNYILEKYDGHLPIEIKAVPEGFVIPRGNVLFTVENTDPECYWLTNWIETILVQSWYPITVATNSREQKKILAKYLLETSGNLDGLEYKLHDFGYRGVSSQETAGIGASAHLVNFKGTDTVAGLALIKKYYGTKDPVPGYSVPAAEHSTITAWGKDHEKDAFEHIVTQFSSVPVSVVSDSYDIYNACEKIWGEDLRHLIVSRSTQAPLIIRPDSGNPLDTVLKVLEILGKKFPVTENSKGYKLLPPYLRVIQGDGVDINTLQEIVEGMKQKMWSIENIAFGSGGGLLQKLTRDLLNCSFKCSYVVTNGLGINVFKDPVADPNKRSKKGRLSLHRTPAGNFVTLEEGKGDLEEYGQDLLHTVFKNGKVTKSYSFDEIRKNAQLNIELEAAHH

A2780 = test: cells; conditions: Homo sapiens, A2780, 72 h
[4] = Fraction unbound in mouse plasma at 5 uM after 4 hrs by LC-MS/MS analysis; type: ADME, cell-free
[5] = Fraction unbound in human plasma at 5 uM after 4 hrs by LC-MS/MS analysis; type: ADME, cell-free
[6] = Intrinsic clearance in human hepatocytes at 1 uM after 10 mins by LC-MS/MS analysis; type: ADME, cell-based, Hepatocyte; conditions: read-out: CLH
[7] = Intrinsic clearance in CD-1 mouse hepatocytes at 1 uM after 10 mins by LC-MS/MS analysis; type: ADME, cell-based, Hepatocyte; conditions: read-out: CLH
in vitro = conditions: dog, MDCK

CLint scaled at 1 µM [6] [mL/min/kg] | CLint scaled at 1 µM [7] [mL/min/kg] | SMILES | remaining at 0.5 h, 1 µM [1] [%] | remaining at 0.5 h, 1 µM [2] [%] | IC50 [3] [nM] | IC50 (A2780) [nM] | fraction unbound at 4 h, 5 µM [4] | fraction unbound at 4 h, 5 µM [5] | Papp A→B at 10 µM (in vitro) [×10⁻⁶ cm/s]
 |  | O=C(NCc1ccc(S(=O)(=O)c2ccccc2)cc1)c1ccc2nccn2c1 | 77 | 18 | 18 | 13 |  |  | 
 |  | O=C(NCc1ccc(S(=O)(=O)c2ccccc2)cc1)c1ccc2cnccc2c1 | 31 | 10 | > 10000 | > 10000 |  |  | 
 |  | O=C(NCc1ccc(S(=O)(=O)c2cccnc2)cc1)c1cc2cnccc2[nH]1 | 75 | 20 |  | 48 |  |  | 
 |  | Cc1ccccc1S(=O)(=O)c1ccc(CNC(=O)c2cc3cnccc3[nH]2)cc1 | 48 | 15 | 12 | 13 |  |  | 
 |  | O=C(NCc1ccc(S(=O)(=O)N2CCCCC2)cc1)c1ccn2cncc2c1 | 54 | 1 | 1700 | > 10000 |  |  | 
 |  | O=C(NCc1ccc(S(=O)(=O)c2ccccc2)cc1)c1ccc2ncncc2c1 | 24 | 3.7 | 1900 | > 10000 |  |  | 
 |  | O=C(NCc1ccc(S(=O)(=O)N2CCCCC2)cc1)c1cnc2nccn2c1 | 64 | 0.28 | 3 | 130 |  |  | 
 |  | O=C(NCc1ccc(S(=O)(=O)c2ccccc2C(F)(F)F)cc1)c1cc2cnccc2[nH]1 | 52 | 41 | 24 | 25 |  |  | 
 |  | O=C(NCc1ccc(S(=O)(=O)c2ccccc2)cc1)c1cc2ccncc2o1 | 86 | 30 |  |  |  |  | 
 |  | Cn1c(C(=O)NCc2ccc(S(=O)(=O)c3ccccc3)cc2)cc2cnccc21 | 78 | 34 |  | > 10000 |  |  | 
 |  | O=C(NCc1ccc(S(=O)(=O)N2CCCCC2)cc1)c1cc2ccncc2s1 | 4.4 | 0.2 | 11 | 6 |  |  | 
 |  | O=C(NCc1ccc(S(=O)(=O)N2CCCCC2)cc1)c1ccc2nccn2c1 | 57 | 0.28 | 28 | 6 |  |  | 
7 | 21 | N#CN=C(NCCCCCCOc1ccc(Cl)cc1)Nc1ccncc1 [CHS-828] | 61 | 63 |  |  | 0.005 | 0.005 | 10
 |  | O=C(NCc1ccc(S(=O)(=O)N2CCCCC2)cc1)c1cc2cnccc2[nH]1 | 44 | 1.9 |  | 10 |  |  | 
 |  | O=C(NCc1ccc(S(=O)(=O)c2cccc(F)c2)cc1)c1cc2cnccc2[nH]1 | 79 | 44 | 5 | 11 |  |  | 
 |  | O=C(NCc1ccc(S(=O)(=O)c2ccccc2)cc1)c1cc2ncccc2s1 | 81 | 1.6 | 400 | > 10000 |  |  | 
 |  | O=C(NCc1ccc(S(=O)(=O)c2ccccc2)cc1)c1nc2ccncc2s1 | 68 | 26 | 210 | > 10000 |  |  | 
 |  | O=C(NCc1ccc(S(=O)(=O)c2ccccc2)cc1)c1ccc2cncn2c1 | 65 | 1.7 | 1500 | > 10000 |  |  | 
15 | 67 | O=C(/C=C/c1cccnc1)NCCCCC1CCN(C(=O)c2ccccc2)CC1 [DAPORINAD] | 46.7 | 7.7 |  |  | 0.033 | 0.007 | 15
 |  | O=C(NCc1ccc(S(=O)(=O)c2cccc(C(F)(F)F)c2)cc1)c1ccc2nccn2c1 | 26 | 17 | 8 | 2 |  |  | 
 |  | O=C(Nc1ccc(S(=O)(=O)N2CCCCC2)cc1)c1cc2cnccc2[nH]1 |  |  | > 10000 | > 10000 |  |  | 
 |  | O=C(NCc1ccc(S(=O)(=O)c2ccccc2)cc1)c1ccc2nncn2c1 | 96 | 47 | 370 | > 10000 |  |  | 
 |  | O=C(NCc1ccc(S(=O)(=O)c2ccc(N3CCOCC3)nc2)cc1)c1cc2ccncc2s1 | 23 | 23 | 3 | 1 |  |  | 

CLint scaled at 1 µM [6] [mL/min/kg] | CLint scaled at 1 µM [7] [mL/min/kg] | SMILES | remaining at 0.5 h, 1 µM [1] [%] | remaining at 0.5 h, 1 µM [2] [%] | IC50 [3] [nM] | IC50 (A2780) [nM] | fraction unbound at 4 h, 5 µM [4] | fraction unbound at 4 h, 5 µM [5] | Papp A→B at 10 µM (in vitro) [×10⁻⁶ cm/s]
 |  | O=C(NCc1ccc(S(=O)(=O)N2CCCCC2)cc1)c1cc2ccncc2o1 | 56 | 0.14 |  | 29 |  |  | 
 |  | O=C(NCc1ccc(S(=O)(=O)c2ccccc2)cc1)c1ccc2ccncc2c1 | 46 | 3.3 | 610 | > 10000 |  |  | 
 |  | O=C(NCc1ccc(S(=O)(=O)c2cc(F)cc(F)c2)cc1)c1cc2ccncc2o1 | 77 | 12 |  |  |  |  | 
 |  | O=C(NCc1ccc(S(=O)(=O)c2ccccc2)cc1)c1c[nH]c2ccncc12 | > 99 | 45 |  | 2100 |  |  | 
 |  | O=C(NCCc1ccc(S(=O)(=O)c2ccccc2)cc1)c1cc2cnccc2[nH]1 | 64 | 31 | 970 | 9100 |  |  | 
7 | 70 | O=C(NCc1ccc(S(=O)(=O)c2cc(F)cc(F)c2)cc1)c1cc2cnccc2[nH]1 | 82 | 63 |  |  |  |  | 12
 |  | O=C(NCc1ccc(S(=O)(=O)N2CCCCC2)cc1)c1cc2cnccc2o1 | 46 | 4.6 | 140 | 1500 |  |  | 
 |  | O=C(NCc1ccc(S(=O)(=O)c2ccc(F)c(F)c2)cc1)c1cc2cnccc2[nH]1 | 100 | 58 | 10 | 14 |  |  | 
 |  | O=C(NCc1ccc(S(=O)(=O)c2ccccc2)cc1)c1cc(-c2cccnc2)[nH]n1 | 67 | 42 | 43 | > 10000 |  |  | 
 |  | O=C(NCc1ccc(S(=O)(=O)c2ccccc2)cc1)c1cn2ccnc2cn1 | 87 | 13 | 150 | > 10000 |  |  | 
 |  | CC(NC(=O)c1cc2cnccc2[nH]1)c1ccc(S(=O)(=O)N2CCCCC2)cc1 (stereo not given) | 34 | 0.65 | > 10000 | > 10000 |  |  | 
 |  | O=C(NCc1ccc(S(=O)(=O)N2CCCCC2)cc1)c1ccc2nc[nH]c2c1 | 53 | 16 | 310 | > 10000 |  |  | 
 |  | O=C(NCc1ccc(S(=O)(=O)c2ccccc2)cc1)c1nc2cnccc2[nH]1 | 73 | 7.3 |  | 5400 |  |  | 
 |  | Cc1cccc(S(=O)(=O)c2ccc(CNC(=O)c3cc4cnccc4[nH]3)cc2)c1 | 49 | 32 | 8 | 4 |  |  | 
 |  | O=C(NCc1ccc(S(=O)(=O)c2ccccc2)cc1)c1cc2ccncc2s1 | 48 | 21 | 7 | 14 |  |  | 
 |  | O=C(NCc1ccc(S(=O)(=O)c2ccccc2)cc1)c1cc(-c2cccnc2)no1 | 69 | 66 | 41 | > 10000 |  |  | 
 |  | O=C(NCc1ccc(S(=O)(=O)c2ccccc2)cc1)c1cc2cnccc2[nH]1 | 75 | 54 |  |  |  |  | 
 |  | O=C(NCc1ccc(S(=O)(=O)c2ccccc2)cc1)c1cnc2nccn2c1 | 60 | 30 |  | 68 |  |  | 
 |  | O=C(NCc1ccc(S(=O)(=O)c2ccc(C(F)(F)F)cc2)cc1)c1cc2cnccc2[nH]1 | 82 | 87 | 16 | 26 |  |  | 
16 | 78 | O=C(NCc1ccc(S(=O)(=O)c2cc(F)cc(F)c2)cc1)c1cc2ccncc2s1 | 41 | 32 |  |  | 0.011 | 0.009 | 
 |  | O=C(NCc1ccc(S(=O)(=O)c2ccc(F)cc2)cc1)c1cc2cnccc2[nH]1 | 91 | 72 | 17 | 16 |  |  | 
 |  | O=C(NCc1ccc(S(=O)(=O)N2CCCCC2)cc1)c1ccn2ccnc2c1 |  |  | 1800 | > 10000 |  |  | 
 |  | O=C(NCc1ccc(S(=O)(=O)c2cccc(C(F)(F)F)c2)cc1)c1cnc2nccn2c1 | 41 | 27 | 1 | 2 |  |  | 

SMILES | CLint scaled at 1 µM [6] [mL/min/kg] | CLint scaled at 1 µM [7] [mL/min/kg] | remaining at 0.5 h, 1 µM [1] [%] | remaining at 0.5 h, 1 µM [2] [%] | IC50 [3] [nM] | IC50 (A2780) [nM] | fraction unbound at 4 h, 5 µM [4] | fraction unbound at 4 h, 5 µM [5] | Papp A→B at 10 µM (in vitro) [×10⁻⁶ cm/s]
O=C(NCc1ccc(S(=O)(=O)c2cc(F)cc(F)c2)cc1)c1cnc2nccn2c1 | 6 | 74 | 78 | 71 |  | 3 | 0.133 | 0.122 | 5
O=C(NCc1ccc(S(=O)(=O)c2ccc(N3CCOCC3)nc2)cc1)c1cc2cnccc2[nH]1 |  | 57 | 75 | 72 | 7 | 1 | 0.015 | 0.011 | 1
O=C(NCc1ccc(S(=O)(=O)c2cccc(C(F)(F)F)c2)cc1)c1cc2ccncc2s1 | 14 | 73 | 43 | 35 |  | 1 | 0.002 | 0.004 | 8
